The conditions of series [1]: geriatric patients, cited from earlier work.
A short description of series [2]: Nasal absorption of hydroxocobalamin nasal spray in healthy volunteers. The series is classed as in vivo, human. Here is the method:
Healthy volunteers received a dose of 500 μg hydroxocobalamin in 50 μl nasal spray containing as main constituents hydroxocobalamin, mannitol 10% w/v, propylene glycol 10% v/v and water (total dose 500 μg hydroxocobalamin HCl) using an Aptar VP7 spray pump. The following increases of hydroxocobalamin blood levels (increase from C t=0 to Cmax after 30 minutes) were measured: […]

For series [3] the following is noted: 6 Crohn's disease patients, 1500 μg nasal, cited from earlier work.
Series [4] has as its system nasal epithelial cells. The settings on record: 1% concentration; cited from earlier work.
For series [5] the following is noted: about 0.1% (w/w); versus benzalkonium chloride; cited from earlier work.
[6] abbreviates: healthy volunteers, 500 μg nasal spray.

Where two headings read alike, the source gives them in different places.

In the case of `C/C1=C2/[N-][C@H]([C@H](CC(N)=O)[C@@]2(C)CCC(=O)NC[C@@H](C)OP(=O)([O-])O[C@H]2[C@@H](O)[C@@H](n3cnc4cc(C)c(C)cc43)O[C@@H]2CO)[C@]2(C)N=C(/C(C)=C3N=C(/C=C4N=C1[C@@H](CCC(N)=O)C\4(C)C)[C@@H](CCC(N)=O)[C@]\3(C)CC(N)=O)[C@@H](CCC(N)=O)[C@]2(C)CC(N)=O.[Co+3].[OH-]` [hydroxocobalamin], the “Cmax levels (±SD) after nasal administration” value in series [1] (dose of 750 μg) is 2.7 ± 1.2 ng/mL; in series [1] (dose), 4.7 ± 3.4 ng/mL. Further, the “irritation in the nose” value in series [2] (setting [6]) is “None of the volunteers”. Also, in series [2] (setting [6]), the “presence of red crustae in the nose afterwards” value is listed as “None of the volunteers”. The “CV (coefficient of variation) of mean increase” value in series [2] (healthy volunteers, 500 μg nasal spray, mannitol 10% w/v, propylene glycol 10% v/v) is given as 23%; in series [3], 42.5%. Moreover, the “vitamin B12 Cmax levels” value in series [2] (healthy volunteers, 500 μg nasal spray, exceeded in none of the volunteers) was at most 1.5 ng/mL. Also, the “Mean increase per 500 μg Hydroxocobalamin” value in series [2] (healthy volunteers, nasal spray, mannitol 10% w/v, propylene glycol 10% v/v, water, SD=127 pg/ml) stood at 549 pg/mL. Also, the “increase of hydroxocobalamin blood levels, alternative composition” value in series [2] (nasal spray with mannitol 5% w/v, propylene glycol 15% v/v and water) is “Comparable results”. For the same molecule, the “mean increase in vitamin B12 level” value in series [3] (three days, SD 645 pg/ml) was 1520 pg/mL.

In the case of `OC[C@@H](O)[C@@H](O)[C@H](O)[C@H](O)CO` [mannitol], the cellular damage result in series [4] is listed as “no cellular damage”.

As to `C/C=C/C=C/C(=O)[O-].[K+]` [potassium sorbate], the “safety as a preservative in nasal products” value in series [5] was “much more safe than benzalkonium chloride”.

The record behind these values is US11813353B2, “Pharmaceutical compositions for the nasal administration of a cobalamin compound” (INNOTESTO BV, priority 2020, dated 2023).
